Measurements: patent US20220257557A1, “PHARMACEUTICAL COMPOSITION FOR PREVENTING OR TREATING NEUROLOGICAL DISEASES” (GLACEUM INC., priority 2019, published 2022)

Key:
[1] = test system: RAW264.7 cells; experiment: NO and PGE2 production after LPS; type: cell-based; details: 3 h pretreatment (Table 3 amounts), LPS 1 μg/ml 24 h
Experimental: (§1) RAW264.7 cells or BV2 cells (5×10^5 cells/well) were dispensed in DMEM containing 10% heat-inactivated FBS, 10 IU/mL penicillin G, 100 μg/mL streptomycin and 2 mM L-glutamine and cultured in a 5% CO2 incubator at a temperature of 37° C.
(§2) The compound of Formula III-3, III-4, V-3, III-1, IV-1, V-1, IV-2, V-2 or II-2 was added to the RAW264.7 cells or BV2 cells, and the toxicities of the compounds were determined by MTT assay.
(§3) The pretreated cells of Experimental Example 4-1 were treated with 1 μg/ml of LPS for 24 hours, and then the expression levels of iNOS and COX-2 were observed through Western blot, and the production of NO and PGE2 was measured.

[2] = test system: BV2 cells; experiment: NO and PGE2 production after LPS; type: cell-based; details: 3 h pretreatment (Table 3 amounts), LPS 1 μg/ml 24 h
Experimental: as §1, §2, §3

[3] = molecular target: T1, rePON1 (PON1, paraoxonase 1) (Homo sapiens, UniProt P27169); experiment: Prevention of inhibition of PON1 activity by oxidized linolenic acid (TBBL substrate); type: biochemical; details: for extent to which inhibition of rePON1 activity was prevented, compared with glabridin: compound 30 μM vs glabridin 30 μM; for extent to which inhibition of rePON1 activity was prevented, compared with glabridin / inhibition of rePON1 activity by oxidized linolenic acid: result in words; for inhibition of rePON1 activity by oxidized linolenic acid: compound 30 μM; for activity at 30 µM: 30 μM compound with rePON1 30 min, then oxidized linolenic acid 2 h, TBBL substrate, normal control 100, negative control 73.64
T1 construct: purchased Thermo Corp. RP-75678
T1 sequence (P27169 whole entry): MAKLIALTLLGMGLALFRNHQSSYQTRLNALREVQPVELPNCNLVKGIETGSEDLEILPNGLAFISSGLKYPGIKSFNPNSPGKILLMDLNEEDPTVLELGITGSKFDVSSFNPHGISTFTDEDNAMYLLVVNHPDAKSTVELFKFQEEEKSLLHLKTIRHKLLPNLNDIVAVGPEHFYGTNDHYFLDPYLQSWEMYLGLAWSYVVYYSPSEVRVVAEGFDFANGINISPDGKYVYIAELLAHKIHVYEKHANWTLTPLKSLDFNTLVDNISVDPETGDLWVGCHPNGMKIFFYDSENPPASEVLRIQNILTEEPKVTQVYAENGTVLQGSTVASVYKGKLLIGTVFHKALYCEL
Experimental: Based on the fact that the activity of PON1 is inhibited when PON1 is treated with oxidized linolenic acid, an experiment was conducted to confirm the prevention of inhibition of PON1 activity. The activity of PON1 was measured using TBBL (5-thiobutyl butyrolactones) as a substrate.
Specifically, after 9.6 μl of 50 mM Tris-HCl containing 1 mM CaCl2 was added to each of […] Eppendorf tubes, 0.2 μl of each of the compounds of Formulas III-1, IV-1, V-1, IV-2, V-2, II-1, IV-3, V-3, III-2, IV-4, V-4, II-2 and III-3 and glabridine was added to each tube so that the concentration thereof was 30 μM. 0.2 μl of rePON1 (RP-75678, Thermo Corp.) was added to each of the 12 tubes and mixed. Thereafter, each of the mixtures was allowed to react at room temperature for 30 minutes, and 0.5 μl of 1 mM oxidized linolenic acid (OX-LA) dissolved in DMSO was added thereto in order to inhibit rePON1 activity, followed by reaction at room temperature for 2 hours, thus preparing solutions (I).
25 μl of 0.5 mM DTNB dissolved in 50 mM Tris-HCl containing 1 mM CaCl2 was dispensed into each well of a 384-well plate, and then 10 μl of each of the solutions (I) was dispensed into each well, and 20 μl of 2 mM TBBL dissolved in 50 mM Tris-HCl containing 1 mM CaCl2 was added to each well, thus preparing samples. The absorbance of each of the samples at 420 nm was measured using a spectrometer (SpectraMax M2) at 37° C. every 2 minutes for 1 hour.
In addition, a negative control was prepared in the same manner as the above-described method, except that, for the preparation of a solution, 0.2 μl of DMSO was added instead of the compounds of Formulas III-1, IV-1, V-1, IV-2, V-2, II-1, IV-3, V-3, III-2, IV-4, V-4, II-2 and III-3 and glabridin. Furthermore, a normal control was prepared in the same manner as the above-described method, except that, for the preparation of a solution, 0.2 μl of DMSO was added instead of the above-described compounds and glabridin and that oxidized linolenic acid was not added. The absorbance of each of the negative control and the normal control was measured.
Using SoftMax Pro software, the activity of PON1 was calculated from the absorbance using the following Equation 1, and the results are shown in Table 1 below.
Activity=(absorbancesample−absorbanceblank)/(absorbancePON1−absorbanceblank)*100 [Equation 1]

[4] = test system: RAW264.7 cells; experiment: Transcription of NF-κB protein (p65, p50) into nucleus after LPS (Western blot); type: cell-based; details: 3 h pretreatment (Table 3 amounts), LPS 1 μg/ml 1 h
Experimental: RAW264.7 cells or BV2 cells (5×10^5 cells/well) were dispensed in DMEM containing 10% heat-inactivated FBS, 10 IU/mL penicillin G, 100 μg/mL streptomycin and 2 mM L-glutamine and cultured in a 5% CO2 incubator at a temperature of 37° C. […]
(§4) The pretreated cells of Experimental Example 4-1 were treated with 1 μg/ml of LPS for 1 hour, and then the level of transcription of NF-κB protein into the nucleus of each of p65 and p50 was analyzed through Western blot.

[5] = test system: BV2 cells; experiment: as above; type: cell-based; details: 3 h pretreatment (Table 3 amounts), LPS 1 μg/ml 1 h
Experimental: as §1, §2, §4

[6] = test system: RAW264.7 cells; experiment: IL-1β, IL-6 and TNF-α mRNA expression after LPS (RT-PCR); type: cell-based; details: 3 h pretreatment (Table 3 amounts), LPS 1 μg/ml 6 h
Experimental: as §1, §2
(§5) The pretreated cells of Experimental Example 4-1 were treated with 1 μg/ml of LPS for 6 hours, and then the mRNA expression level of the cytokine IL-1β, IL-6 or TNF-α produced in the inflammatory response was analyzed using RT-PCR.

[7] = test system: BV2 cells; experiment: as above; type: cell-based; details: 3 h pretreatment (Table 3 amounts), LPS 1 μg/ml 6 h
Experimental: as §1, §2, §5

[8] = test system: RAW264.7 cells; experiment: iNOS and COX-2 expression after LPS (Western blot); type: cell-based; details: 3 h pretreatment (Table 3 amounts), LPS 1 μg/ml 24 h
Experimental: as §1, §2, §3

[9] = test system: BV2 cells; experiment: iNOS and COX-2 expression after LPS (Western blot); type: cell-based; details: 3 h pretreatment (Table 3 amounts), LPS 1 μg/ml 24 h
Experimental: as §1, §2, §3

| Compound | production of NO [1] | production of PGE2 [1] | production of NO [2] | production of PGE2 [2] | extent to which inhibition of rePON1 activity was prevented, compared with glabridin [3] | inhibition of rePON1 activity by oxidized linolenic acid [3] | level of transcription of NF-κB protein into the nucleus, p50 [4] | level of transcription of NF-κB protein into the nucleus, p65 [4] | level of transcription of NF-κB protein into the nucleus, p50 [5] | level of transcription of NF-κB protein into the nucleus, p65 [5] | mRNA expression level of IL-1β [6] | mRNA expression level of IL-6 [6] | mRNA expression level of TNF-α [6] | mRNA expression level of IL-1β [7] | mRNA expression level of IL-6 [7] | mRNA expression level of TNF-α [7] | expression level of COX-2 [8] | expression level of iNOS [8] | expression level of COX-2 [9] | expression level of iNOS [9] | also measured |
| --- | --- | --- | --- | --- | --- | --- | --- | --- | --- | --- | --- | --- | --- | --- | --- | --- | --- | --- | --- | --- | --- |
| CCCOc1ccc(C2=Cc3ccc4c(c3OC2)C=CC(C)(C)O4)c(O)c1 [Formula II-2, 2-(8,8-dimethyl-2,8-dihydropyrano[2,3-f]chromen-3-yl)-5-propoxyphenol] | concentration-dependently decreased | concentration-dependently decreased | concentration-dependently decreased | concentration-dependently decreased | greater | prevented | concentration-dependently decreased | concentration-dependently decreased | concentration-dependently decreased | concentration-dependently decreased | concentration-dependently decreased | concentration-dependently decreased | concentration-dependently decreased | concentration-dependently decreased | concentration-dependently decreased | concentration-dependently decreased | concentration-dependently decreased | concentration-dependently decreased | concentration-dependently decreased | concentration-dependently decreased |  |
| CC1(C)C=Cc2c(ccc3c2OC[C@@H](c2ccc(O)cc2O)C3)O1 [Glabridin, glabridin, reference compound] | did not decrease | did not decrease | did not decrease | did not decrease |  |  | did not decrease | did not decrease | did not decrease | did not decrease | did not decrease | did not decrease | did not decrease | did not decrease | did not decrease | did not decrease | did not decrease | did not decrease | did not decrease | did not decrease | activity at 30 µM [3]: 82.8% |
| CCOc1ccc([C@@H]2COc3c(ccc4c3CCC(C)(C)O4)C2)c(O)c1 [Formula IV-1, (R)-2-(8,8-dimethyl-2,3,4,8,9,10-hexahydropyrano[2,3-f]chromen-3-yl)-5-ethoxyphenol] | concentration-dependently decreased | concentration-dependently decreased | concentration-dependently decreased | concentration-dependently decreased | greater | prevented | concentration-dependently decreased | concentration-dependently decreased | concentration-dependently decreased | concentration-dependently decreased | concentration-dependently decreased | concentration-dependently decreased | concentration-dependently decreased | concentration-dependently decreased | concentration-dependently decreased | concentration-dependently decreased | concentration-dependently decreased | concentration-dependently decreased | concentration-dependently decreased | concentration-dependently decreased | activity at 30 µM [3]: 95% |
| CCCc1ccc([C@H]2COc3c(ccc4c3CCC(C)(C)O4)C2)c(O)c1 [Formula V-3, (S)-2-(8,8-dimethyl-2,3,4,8,9,10-hexahydropyrano[2,3-f]chromen-3-yl)-5-propylphenol] | concentration-dependently decreased | concentration-dependently decreased | concentration-dependently decreased | concentration-dependently decreased | greater | prevented | concentration-dependently decreased | concentration-dependently decreased | concentration-dependently decreased | concentration-dependently decreased | concentration-dependently decreased | concentration-dependently decreased | concentration-dependently decreased | concentration-dependently decreased | concentration-dependently decreased | concentration-dependently decreased | concentration-dependently decreased | concentration-dependently decreased | concentration-dependently decreased | concentration-dependently decreased | activity at 30 µM [3]: 95.1% |
